The target of the first experiment is T1, Human CaV2.2 channels (Homo sapiens, UniProt Q00975).
T1 construct: expressed in transfected cells; host or cells: HEK293
T1 sequence (Q00975 whole entry): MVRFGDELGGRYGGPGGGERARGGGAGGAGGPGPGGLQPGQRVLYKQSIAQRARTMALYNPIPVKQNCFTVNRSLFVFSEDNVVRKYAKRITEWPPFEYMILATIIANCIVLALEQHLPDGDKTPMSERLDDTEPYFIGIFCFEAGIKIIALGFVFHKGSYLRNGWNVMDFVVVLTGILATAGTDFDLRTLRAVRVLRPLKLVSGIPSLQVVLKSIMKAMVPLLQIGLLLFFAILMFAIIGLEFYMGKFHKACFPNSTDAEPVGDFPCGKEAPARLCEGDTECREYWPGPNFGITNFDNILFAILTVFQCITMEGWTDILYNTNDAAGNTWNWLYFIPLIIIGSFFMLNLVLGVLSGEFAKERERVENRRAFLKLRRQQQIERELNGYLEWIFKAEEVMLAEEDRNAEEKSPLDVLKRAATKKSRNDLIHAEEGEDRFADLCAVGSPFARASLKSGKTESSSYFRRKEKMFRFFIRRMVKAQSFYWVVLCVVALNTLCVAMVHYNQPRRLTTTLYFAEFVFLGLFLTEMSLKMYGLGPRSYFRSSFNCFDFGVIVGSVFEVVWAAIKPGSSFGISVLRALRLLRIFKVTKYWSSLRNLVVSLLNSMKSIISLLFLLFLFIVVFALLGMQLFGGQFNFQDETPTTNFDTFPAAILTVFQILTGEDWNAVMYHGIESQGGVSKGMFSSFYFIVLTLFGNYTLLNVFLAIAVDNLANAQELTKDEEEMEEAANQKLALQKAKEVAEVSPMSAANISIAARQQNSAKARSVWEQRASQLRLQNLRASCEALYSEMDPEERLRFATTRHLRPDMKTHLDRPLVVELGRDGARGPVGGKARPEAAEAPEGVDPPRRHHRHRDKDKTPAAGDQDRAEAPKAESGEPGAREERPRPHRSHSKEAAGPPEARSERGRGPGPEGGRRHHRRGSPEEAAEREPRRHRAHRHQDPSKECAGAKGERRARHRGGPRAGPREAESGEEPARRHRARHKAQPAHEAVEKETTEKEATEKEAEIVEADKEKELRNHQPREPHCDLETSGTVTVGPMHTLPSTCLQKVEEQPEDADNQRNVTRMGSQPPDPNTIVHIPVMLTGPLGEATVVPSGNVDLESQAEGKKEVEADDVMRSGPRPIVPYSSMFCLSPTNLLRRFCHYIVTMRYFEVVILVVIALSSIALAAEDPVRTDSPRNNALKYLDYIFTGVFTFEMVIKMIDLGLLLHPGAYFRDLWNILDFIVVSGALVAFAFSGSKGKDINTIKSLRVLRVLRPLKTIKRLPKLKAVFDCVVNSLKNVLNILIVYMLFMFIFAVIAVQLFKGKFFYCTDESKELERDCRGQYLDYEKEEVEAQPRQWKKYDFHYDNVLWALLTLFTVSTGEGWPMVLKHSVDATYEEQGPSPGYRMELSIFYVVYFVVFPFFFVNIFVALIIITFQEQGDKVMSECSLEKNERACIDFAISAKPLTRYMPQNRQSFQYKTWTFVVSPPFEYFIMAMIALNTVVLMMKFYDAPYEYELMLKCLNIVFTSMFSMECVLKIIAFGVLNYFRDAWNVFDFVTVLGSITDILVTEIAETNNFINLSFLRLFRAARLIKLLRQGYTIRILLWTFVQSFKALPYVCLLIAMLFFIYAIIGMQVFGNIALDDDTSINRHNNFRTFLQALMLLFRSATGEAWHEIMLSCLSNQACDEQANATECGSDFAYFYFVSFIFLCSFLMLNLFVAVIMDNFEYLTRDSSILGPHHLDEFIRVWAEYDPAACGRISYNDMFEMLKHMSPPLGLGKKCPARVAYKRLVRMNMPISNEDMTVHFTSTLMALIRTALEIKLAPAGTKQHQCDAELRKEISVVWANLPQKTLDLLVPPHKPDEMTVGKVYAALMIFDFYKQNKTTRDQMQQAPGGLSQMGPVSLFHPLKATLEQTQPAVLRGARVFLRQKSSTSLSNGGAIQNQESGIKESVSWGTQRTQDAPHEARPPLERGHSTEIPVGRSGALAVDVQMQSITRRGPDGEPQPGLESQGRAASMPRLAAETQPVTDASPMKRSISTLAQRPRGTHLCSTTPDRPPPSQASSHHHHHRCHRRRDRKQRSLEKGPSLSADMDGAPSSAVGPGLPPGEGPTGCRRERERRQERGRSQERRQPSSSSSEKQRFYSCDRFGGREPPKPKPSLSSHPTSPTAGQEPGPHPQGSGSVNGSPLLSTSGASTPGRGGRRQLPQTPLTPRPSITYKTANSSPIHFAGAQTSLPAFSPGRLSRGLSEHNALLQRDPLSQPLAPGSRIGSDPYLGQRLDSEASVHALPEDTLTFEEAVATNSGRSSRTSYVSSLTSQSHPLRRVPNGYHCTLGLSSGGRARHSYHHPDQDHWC
T1 sequence (P54284 whole entry, further chain): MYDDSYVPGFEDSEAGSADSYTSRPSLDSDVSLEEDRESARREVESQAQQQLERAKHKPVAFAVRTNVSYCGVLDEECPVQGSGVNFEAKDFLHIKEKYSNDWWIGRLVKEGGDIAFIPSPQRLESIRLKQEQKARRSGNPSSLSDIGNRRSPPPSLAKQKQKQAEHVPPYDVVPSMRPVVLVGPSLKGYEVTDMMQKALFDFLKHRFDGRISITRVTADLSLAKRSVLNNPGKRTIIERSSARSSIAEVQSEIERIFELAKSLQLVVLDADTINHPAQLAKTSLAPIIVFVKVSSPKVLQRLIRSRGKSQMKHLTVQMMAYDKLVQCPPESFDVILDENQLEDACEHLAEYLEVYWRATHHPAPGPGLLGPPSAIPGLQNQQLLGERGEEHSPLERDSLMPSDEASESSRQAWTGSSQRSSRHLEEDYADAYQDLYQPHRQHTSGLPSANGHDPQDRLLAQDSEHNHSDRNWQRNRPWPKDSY
T1 sequence (P54289 25-1103, further chain): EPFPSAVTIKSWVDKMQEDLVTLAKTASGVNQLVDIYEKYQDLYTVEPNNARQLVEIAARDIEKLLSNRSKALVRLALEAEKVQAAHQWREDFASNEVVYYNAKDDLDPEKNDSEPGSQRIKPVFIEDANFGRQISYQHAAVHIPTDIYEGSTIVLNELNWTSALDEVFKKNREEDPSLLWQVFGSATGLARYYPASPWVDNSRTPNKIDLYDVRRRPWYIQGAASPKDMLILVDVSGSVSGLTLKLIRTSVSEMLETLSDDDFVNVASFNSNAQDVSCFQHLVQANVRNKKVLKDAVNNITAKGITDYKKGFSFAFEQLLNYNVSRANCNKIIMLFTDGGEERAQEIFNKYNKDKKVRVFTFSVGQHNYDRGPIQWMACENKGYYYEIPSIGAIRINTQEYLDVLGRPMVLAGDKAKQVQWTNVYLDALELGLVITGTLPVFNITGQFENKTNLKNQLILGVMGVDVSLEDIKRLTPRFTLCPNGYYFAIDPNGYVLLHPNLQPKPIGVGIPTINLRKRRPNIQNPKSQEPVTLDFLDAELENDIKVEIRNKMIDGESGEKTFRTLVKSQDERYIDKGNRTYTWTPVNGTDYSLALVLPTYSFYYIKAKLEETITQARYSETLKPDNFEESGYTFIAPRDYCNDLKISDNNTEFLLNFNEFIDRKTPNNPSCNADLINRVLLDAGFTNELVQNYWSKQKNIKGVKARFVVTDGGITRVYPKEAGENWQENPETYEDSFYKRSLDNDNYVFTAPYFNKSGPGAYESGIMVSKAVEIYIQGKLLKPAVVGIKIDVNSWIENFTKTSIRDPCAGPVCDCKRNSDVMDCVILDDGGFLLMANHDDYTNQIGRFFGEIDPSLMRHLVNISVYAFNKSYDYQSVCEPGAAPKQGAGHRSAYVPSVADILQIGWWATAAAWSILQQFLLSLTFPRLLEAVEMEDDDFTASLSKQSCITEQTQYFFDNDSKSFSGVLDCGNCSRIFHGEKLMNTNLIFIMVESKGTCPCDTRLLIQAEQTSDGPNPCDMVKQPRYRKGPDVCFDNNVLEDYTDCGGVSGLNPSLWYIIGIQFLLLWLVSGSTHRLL
Put plainly: Fluorescent (FLIPR) assay for CaV2.2 channels using potassium depolarization to induce channel opening. The format is cell-based. To be noted: 3 μM compound; 30 mM KCl assay buffer (inactivated channel state); HEK293 cells stably expressing human CaV2.2. From the text: In the process, the Ca^2+ influx is quantified in the FLIPR assay with the aid of a Ca^2+-sensitive dye (type Fluo-4, Molecular Probes Europe BV, Leiden, the Netherlands) in a fluorescent imaging plate reader (FLIPR 3, Molecular Devices, Sunnyvale, USA), as described hereinafter.
Human CaV2.2 channels were stably expressed in HEK293 cells together with alpha2-delta and beta subunits of voltage gated calcium channels. In addition, an inwardly rectifying potassium channel (Kir2.3) was stably expressed in these cells to augment control of the cell membrane potential by the concentration of extracellular potassium ions. Raise of the extracellular potassium concentration leads to depolarization of the membrane potential and thus regulates the voltage dependent state of CaV2.2 channels. For preparation, cells were seeded in black poly-D-lysine coated 96-well plates (Becton Dickinson, Biocoat 4640) in 100 μL medium [500 mL DMEM/F-12 plus Glutamax (Invitrogen 31331-093) plus 5.5 mL MEM NEAA 100× (Invitrogen 11140-035) plus 50 mL FBS decomplemented (Invitrogen 10270-106) plus 200 μg/mL Geneticin (Invitrogen 10131-027) plus 50 μg/mL Hygromycin B (Invitrogen 10687-010) plus 2 μg/mL Blasticidin (anti-bl5b Invivo-Gen) plus 0.2 μg/mL Puromycin (A 11138-03)] at a cell density of 30.000 cells per well. Plates were incubated at 37° C. (5% CO2) for 20 to 23 h. On the day of experiment medium was discarded and cells were loaded with Fluo 4 by addition of 100 μL of basic assay buffer (10 mM HEPES, 1 mM KCl, 149 mM NaCl, 0.8 mM CaCl2, 1.7 mM MgCl2, 10 mM Glucose, 0.1% BSA. pH 7.4) containing 2 μM Fluo 4 (Molecular Probes; F-14201), 0.01% pluronic acid (Molecular Probes; P-6866) and 2.5 mM probenecid (Molecular Probes; P36400). Cells were incubated in the dark at 25° C. for 60 min. Then dye containing buffer was discarded and 100 μL basic (1 mM KCl) or alternative (30 mM KCl) assay buffer was added. The alternative assay buffer contained altered concentrations of KCl (30 mM) and NaCl (120 mM) and was used in order to promote the inactivated channel state. After that 25 μL of basic or alternative assay buffer with or without test compound were added and cells were incubated again in the dark at 25° C. for 15 min. Fluorescence intensity was measured on a FLIPR 3 instrument (Molecular Devices Corp., Sunnyvale, Calif.) with excitation at 480 nm and emission at 535 nm. After continuously reading fluorescence for 30 sec, 50 μL of basic assay buffer containing 210 mM KCl (NaCl omitted) were added for depolarization. Peak fluorescent signal intensity was determined and the amplitude of the peak signal, normalized to base line, was used to measure channel inhibition by test compounds.
Turning to `CC(C)Cn1c(C(F)(F)F)cc(-c2ccc(F)cc2)c1C(=O)N(C)Cc1cnc(N(C)C)nc1` [Example 060], the “Activity Category: %-Inhib (CaV2.2) @3 μM @30 mM KCl” value is “A (%-Inhibition >95%)”.

Still in this experiment, the particulars now being: 3 μM compound; 30 mM KCl assay buffer (inactivated channel state); HEK293 cells stably expressing human CaV2.2; read-out: Activity Category: %-Inhib (CaV2.2) @3 μM @30 mM KCl.
Turning to `Cc1cnc(CN(C)C(=O)c2c(-c3ccc(F)cc3)cc(C(F)(F)F)n2CC(C)C)cn1` [Example 049, 3-(4-Fluorophenyl)-N-methyl-1-(2-methyl-propyl)-N-[(5-methyl-pyrazin-2-yl)-methyl]-5-(trifluoromethyl)-1H-pyrrole-2-carboxylic acid amide], the inhibition at 3 µM was more than 95%.
The same measure, in the same setting: the result for `CC(C)Cn1c(C(F)(F)F)cc(-c2ccc(F)cc2)c1C(=O)N(C)CCS(C)(=O)=O` [Example 050, 3-(4-Fluorophenyl)-N-methyl-1-(2-methyl-propyl)-N-(2-methylsulfonyl-ethyl)-5-(trifluoromethyl)-1H-pyrrole-2-carboxylic acid amide] reads 75 to 95%; that for `Cc1c(-c2ccc(Cl)cc2)c(C(=O)N(C)C2(C(N)=O)CC2)n(CC(C)C)c1C(F)(F)F` [Example 051, N-(1-Carbamoyl-cyclopropyl)-3-(4-chlorophenyl)-N,4-dimethyl-1-(2-methyl-propyl)-5-(trifluoromethyl)-1H-pyrrole-2-carboxylic acid amide], more than 95%; that for `Cc1c(-c2ccc(Cl)cc2)c(C(=O)N(C)CC(C)(C)C(N)=O)n(CC(C)C)c1C(F)(F)F` [Example 052, N-(2-Carbamoyl-2-methyl-propyl)-3-(4-chlorophenyl)-N,4-dimethyl-1-(2-methyl-propyl)-5-(trifluoromethyl)-1H-pyrrole-2-carboxylic acid amide], 75 to 95%.
Still for that read-out and setting: for `CC(C)Cn1c(C(F)(F)F)cc(-c2ccc(F)cc2)c1C(=O)N(C)CC(C)(C)C` [Example 053, N-(2,2-Dimethyl-propyl)-3-(4-fluorophenyl)-N-methyl-1-(2-methyl-propyl)-5-(trifluoromethyl)-1H-pyrrole-2-carboxylic acid amide] the value was 40 to 75%.
On to `CC(C)Cn1c(C(F)(F)F)cc(-c2ccc(F)cc2)c1C(=O)N(C)CC(C)(C)CN1CCOCC1` [Example 054, N-(2,2-Dimethyl-3-morpholin-4-yl-propyl)-3-(4-fluorophenyl)-N-methyl-1-(2-methyl-propyl)-5-(trifluoromethyl)-1H-pyrrole-2-carboxylic acid amide], for which the inhibition at 3 µM was in the range of 75 to 95%.
Same read-out and setting: for `Cc1c(-c2ccc(Cl)cc2)c(C(=O)N(C)CC(C)(C)CO)n(CC(C)C)c1C(F)(F)F` [Example 055, 3-(4-Chlorophenyl)-N-(3-hydroxy-2,2-dimethyl-propyl)-N,4-dimethyl-1-(2-methyl-propyl)-5-(trifluoromethyl)-1H-pyrrole-2-carboxylic acid amide] the value was more than 95%.
On the same count and under the same terms, for `CC(C)Cn1c(C(F)(F)F)cc(-c2ccc(F)cc2)c1C(=O)N(C)CC(C)(C)CO` [Example 056, 3-(4-Fluorophenyl)-N-(3-hydroxy-2,2-dimethyl-propyl)-N-methyl-1-(2-methyl-propyl)-5-(trifluoromethyl)-1H-pyrrole-2-carboxylic acid amide] the value was 75 to 95%; for `Cc1cc(CN(C)C(=O)c2c(-c3ccc(Cl)cc3)c(C)c(C(F)(F)F)n2CC(C)C)no1` [Example 057, 3-(4-Chlorophenyl)-N,4-dimethyl-N-[(5-methyl-isoxazol-3-yl)-methyl]-1-(2-methyl-propyl)-5-(trifluoromethyl)-1H-pyrrole-2-carboxylic acid amide], more than 95%; for `CC(C)Cn1c(C(F)(F)F)cc(-c2ccc(F)cc2)c1C(=O)N(C)CC1CCOC1` (centres unmarked) [Example 058, 3-(4-Fluorophenyl)-N-methyl-1-(2-methyl-propyl)-N-(tetrahydro-furan-3-yl-methyl)-5-(trifluoromethyl)-1H-pyrrole-2-carboxylic acid amide], more than 95%.
On the same count and under the same terms, the result for `Cc1cnc(CN(C)C(=O)c2c(-c3ccc(Cl)cc3)c(C)c(C(F)(F)F)n2CC(C)C)cn1` [Example 059, 3-(4-Chlorophenyl)-N,4-dimethyl-1-(2-methyl-propyl)-N-[(5-methyl-pyrazin-2-yl)-methyl]-5-(trifluoromethyl)-1H-pyrrole-2-carboxylic acid amide] reads more than 95%; that for `Cc1c(-c2ccc(Cl)cc2)c(C(=O)N(C)CCS(C)(=O)=O)n(CC(C)C)c1C(F)(F)F` [Example 061, 3-(4-Chlorophenyl)-N,4-dimethyl-1-(2-methyl-propyl)-N-(2-methylsulfonyl-ethyl)-5-(trifluoromethyl)-1H-pyrrole-2-carboxylic acid amide], more than 95%; that for `Cc1noc(C2CCN(C(=O)c3c(-c4ccc(Cl)cc4)c(C)c(C(F)(F)F)n3CC(C)C)CC2)n1` [Example 062, [3-(4-Chlorophenyl)-4-methyl-1-(2-methyl-propyl)-5-(trifluoromethyl)-1H-pyrrol-2-yl]-[4-(3-methyl-[1,2,4]oxadiazol-5-yl)-piperidin-1-yl]-methanone], 75 to 95%.
As for `CC(C)Cn1c(C(F)(F)F)cc(-c2ccc(F)cc2)c1C(=O)N1CCNC(=O)C1` [Example 063, 4-[3-(4-Fluorophenyl)-1-(2-methyl-propyl)-5-(trifluoromethyl)-1H-pyrrole-2-carbonyl]-piperazin-2-one], the inhibition at 3 µM lay within 40 to 75%.
In the case of `Cc1c(-c2ccc(Cl)cc2)c(C(=O)N2CCOC(C)(C)C2)n(CC(C)C)c1C(F)(F)F` [Example 064, [3-(4-Chlorophenyl)-4-methyl-1-(2-methyl-propyl)-5-(trifluoromethyl)-1H-pyrrol-2-yl]-(2,2-dimethyl-morpholin-4-yl)-methanone], the inhibition at 3 µM was in the range of 75 to 95%.
Same read-out and setting: the result for `CC(C)Cn1c(C(F)(F)F)cc(-c2ccc(F)cc2)c1C(=O)N1CCOCC1` [Example 065, [3-(4-Fluorophenyl)-1-(2-methyl-propyl)-5-(trifluoromethyl)-1H-pyrrol-2-yl]-morpholin-4-yl-methanone] reads 75 to 95%.
On the same count and under the same terms, the result for `CC(C)Cn1c(C(F)(F)F)cc(-c2ccc(F)cc2)c1C(=O)NC1CC1` [Example 066, N-Cyclopropyl-3-(4-fluorophenyl)-1-(2-methyl-propyl)-5-(trifluoromethyl)-1H-pyrrole-2-carboxylic acid amide] reads 75 to 95%.
On the same count and under the same terms, for `Cc1c(-c2ccc(Cl)cc2)c(C(=O)N(C)CC(C)(C)C#N)n(CC(C)C)c1C(F)(F)F` [Example 067, 3-(4-Chlorophenyl)-N-(2-cyano-2-methyl-propyl)-N,4-dimethyl-1-(2-methyl-propyl)-5-(trifluoromethyl)-1H-pyrrole-2-carboxylic acid amide] the value was 40 to 75%; for `Cc1c(-c2ccc(Cl)cc2)c(C(=O)N(C)CCS(C)(=O)=O)n(CC2(C)CC2)c1C(F)(F)F` [Example 068, 3-(4-Chlorophenyl)-N,4-dimethyl-1-[(1-methyl-cyclopropyl)-methyl]-N-(2-methylsulfonyl-ethyl)-5-(trifluoromethyl)-1H-pyrrole-2-carboxylic acid amide], more than 95%; for `CN(Cc1cnc(N(C)C)nc1)C(=O)c1c(-c2ccc(F)cc2)cc(C(F)(F)F)n1CC1CCCO1` (centres unmarked) [Example 069, N-[(2-Dimethylamino-pyrimidin-5-yl)-methyl]-3-(4-fluorophenyl)-N-methyl-1-(tetrahydro-furan-2-yl-methyl)-5-(trifluoromethyl)-1H-pyrrole-2-carboxylic acid amide], 75 to 95%.
Consider `CN(C(=O)c1c(-c2ccc(F)cc2)cc(C(F)(F)F)n1CC1CCCO1)C1CCOCC1` (centres unmarked) [Example 070, 3-(4-Fluorophenyl)-N-methyl-1-(tetrahydro-furan-2-yl-methyl)-N-tetrahydro-pyran-4-yl-5-(trifluoromethyl)-1H-pyrrole-2-carboxylic acid amide], for which the inhibition at 3 µM lay in the range of 75 to 95%.
Still for that read-out and setting: the result for `CN(C(=O)c1c(-c2ccc(F)cc2)cc(C(F)(F)F)n1CC1CCCO1)C1CCS(=O)(=O)C1` (centres unmarked) [Example 071, N-(1,1-Dioxo-thiolan-3-yl)-3-(4-fluorophenyl)-N-methyl-1-(tetrahydro-furan-2-yl-methyl)-5-(trifluoromethyl)-1H-pyrrole-2-carboxylic acid amide] reads 40 to 75%.
